How the values were obtained:
[1] = test system: pERK level in H358 cells; assay: pERK and ERK protein content assay in H358 cells (ELISA); format: cell-based; conditions: Homo sapiens, NCI-H358, compound 1 μM, 24 h, pERK/ERK ratio compared with DMSO group, read-out: Inhibition rate (%) of pERK level
Method in brief: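 H358 cells grown one day, then treated 24 h with compound at 1 μM. pERK and ERK in lysates measured by ELISA; pERK/ERK ratio expressed as percent inhibition versus DMSO.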

[2] = test system: H358 cells; assay: Antiproliferative activity against H358 cells (Cell Titer Glow, ultra-low attachment plate); format: cell-based; conditions: Homo sapiens, NCI-H358, 72 h, 96-well ultra-low attachment plate, three days after addition of compound, Cell Titer Glow
Description: 2500 H358 cells were seeded in a 96-well ultra-low attachment plate (corning, 7007). After one day of growth, a serially diluted compound (a maximum concentration of 5 μM, 5-fold dilution, a total of five doses) was added. Three days after the addition of the compound, Cell Titer Glow (Promega, G9681) was added to evaluate pellet growth, and the IC50 value was calculated.

| IC50 [2] [nM] | SMILES | inhibition at 1 µM [1] [%] |
| --- | --- | --- |
| < 300 | C=CC(=O)N1CC2(CCN(c3nc(N(C)CCN4CC[C@H](F)C4)nc4c(OCC(F)(F)F)c(-c5c(C)ccc6[nH]ncc56)c(C5CC5)cc34)CC2)C1 [Compound 236] | > 90 |
| < 300 | C=CC(=O)N1CC2(CCN(c3nc(N4CC(N5CC(C)C5)C4)nc4c(OCC(F)(F)F)c(-c5c(C)ccc6[nH]ncc56)c(C5CC5)cc34)CC2)C1 [Compound 237] | > 90 |
| 300 to 1000 | C=CC(=O)N1CC2(CCN(c3nc(N4CC(N5CC(C#N)C5)C4)nc4c(OCC(F)(F)F)c(-c5c(C)ccc6[nH]ncc56)c(C5CC5)cc34)CC2)C1 [Compound 238] | > 90 |
| 300 to 1000 | C=CC(=O)N1CC2(CCN(c3nc(N4CC(N5CC(OCC(F)(F)F)C5)C4)nc4c(OCC(F)(F)F)c(-c5c(C)ccc6[nH]ncc56)c(C5CC5)cc34)CC2)C1 [Compound 239] | 50 to 90 |
| < 300 | C=CC(=O)N1CC2(CCN(c3nc(N4CC(N5CC(C)(O)C5)C4)nc4c(OCC(F)(F)F)c(-c5c(C)ccc6[nH]ncc56)c(C5CC5)cc34)CC2)C1 [Compound 240] | > 90 |
| 300 to 1000 | C=CC(=O)N1CC2(CCN(c3nc(N4CC(N5CC(S(C)(=O)=O)C5)C4)nc4c(OCC(F)(F)F)c(-c5c(C)ccc6[nH]ncc56)c(C5CC5)cc34)CC2)C1 [Compound 241] | 50 to 90 |
| < 300 | C=CC(=O)N1CC2(CCN(c3nc(N4CC(N5CC(CC#N)C5)C4)nc4c(OCC(F)(F)F)c(-c5c(C)ccc6[nH]ncc56)c(C5CC5)cc34)CC2)C1 [Compound 242] | > 90 |
| < 300 | C=CC(=O)N1CC2(CCN(c3nc(N4CC(N5CC(CO)C5)C4)nc4c(OCC(F)(F)F)c(-c5c(C)ccc6[nH]ncc56)c(C5CC5)cc34)CC2)C1 [Compound 243] | > 90 |
| < 300 | C=CC(=O)N1CC2(CCN(c3nc(N4CC(N5CC(N(C)C)C5)C4)nc4c(OCC(F)(F)F)c(-c5c(C)ccc6[nH]ncc56)c(C5CC5)cc34)CC2)C1 [Compound 244] | > 90 |
| < 300 | C=CC(=O)N1CC2(CCN(c3nc(N4CC(N5CCC[C@H]5C)C4)nc4c(OCC(F)(F)F)c(-c5c(C)ccc6[nH]ncc56)c(C5CC5)cc34)CC2)C1 [Compound 245] | > 90 |
| < 300 | C=CC(=O)N1CC2(CCN(c3nc(N4CC(N5CCC[C@@H]5C)C4)nc4c(OCC(F)(F)F)c(-c5c(C)ccc6[nH]ncc56)c(C5CC5)cc34)CC2)C1 [Compound 246] | > 90 |
| < 300 | C=CC(=O)N1CC2(CCN(c3nc(N4CC(N5CC[C@H](C)C5)C4)nc4c(OCC(F)(F)F)c(-c5c(C)ccc6[nH]ncc56)c(C5CC5)cc34)CC2)C1 [Compound 247] | > 90 |
| < 300 | C=CC(=O)N1CC2(CCN(c3nc(N4CC(N5CC[C@@H](C)C5)C4)nc4c(OCC(F)(F)F)c(-c5c(C)ccc6[nH]ncc56)c(C5CC5)cc34)CC2)C1 [Compound 248] | > 90 |
| 300 to 1000 | C=CC(=O)N1CC2(CCN(c3nc(N4CC(N5CCC[C@@H]5C#N)C4)nc4c(OCC(F)(F)F)c(-c5c(C)ccc6[nH]ncc56)c(C5CC5)cc34)CC2)C1 [Compound 249] | 50 to 90 |
| 300 to 1000 | C=CC(=O)N1CC2(CCN(c3nc(N4CC(N5CCC[C@H]5C#N)C4)nc4c(OCC(F)(F)F)c(-c5c(C)ccc6[nH]ncc56)c(C5CC5)cc34)CC2)C1 [Compound 250] | 50 to 90 |
| < 300 | C=CC(=O)N1CC2(CCN(c3nc(N4CC(N5CCC[C@@H]5CO)C4)nc4c(OCC(F)(F)F)c(-c5c(C)ccc6[nH]ncc56)c(C5CC5)cc34)CC2)C1 [Compound 251] | > 90 |
| < 300 | C=CC(=O)N1CC2(CCN(c3nc(N4CC(N5CCC[C@H]5CO)C4)nc4c(OCC(F)(F)F)c(-c5c(C)ccc6[nH]ncc56)c(C5CC5)cc34)CC2)C1 [Compound 252] | > 90 |
| 300 to 1000 | C=CC(=O)N1CC2(CCN(c3nc(N4CC(N5CC[C@H](C(C)(C)O)C5)C4)nc4c(OCC(F)(F)F)c(-c5c(C)ccc6[nH]ncc56)c(C5CC5)cc34)CC2)C1 [Compound 253] | > 90 |
| 300 to 1000 | C=CC(=O)N1CC2(CCN(c3nc(N4CC(N5CC[C@@H](C(C)(C)O)C5)C4)nc4c(OCC(F)(F)F)c(-c5c(C)ccc6[nH]ncc56)c(C5CC5)cc34)CC2)C1 [Compound 254] | > 90 |
| < 300 | C=CC(=O)N1CC2(CCN(c3nc(N4CC(N5CC[C@H](N(C)C)C5)C4)nc4c(OCC(F)(F)F)c(-c5c(C)ccc6[nH]ncc56)c(C5CC5)cc34)CC2)C1 [Compound 255] | > 90 |

| IC50 [2] [nM] | SMILES | inhibition at 1 µM [1] [%] |
| --- | --- | --- |
| < 300 | C=CC(=O)N1CC2(CCN(c3nc(N4CC(N5CC[C@@H](N(C)C)C5)C4)nc4c(OCC(F)(F)F)c(-c5c(C)ccc6[nH]ncc56)c(C5CC5)cc34)CC2)C1 [Compound 256] | > 90 |
| 300 to 1000 | C=CC(=O)N1CC2(CCN(c3nc(N4CC(N5CC[C@H](C#N)C5)C4)nc4c(OCC(F)(F)F)c(-c5c(C)ccc6[nH]ncc56)c(C5CC5)cc34)CC2)C1 [Compound 257] | > 90 |
| 300 to 1000 | C=CC(=O)N1CC2(CCN(c3nc(N4CC(N5CC[C@@H](C#N)C5)C4)nc4c(OCC(F)(F)F)c(-c5c(C)ccc6[nH]ncc56)c(C5CC5)cc34)CC2)C1 [Compound 258] | > 90 |
| < 300 | C=CC(=O)N1CC2(CCN(c3nc(N4CC(N5C[C@@H](O)C[C@H]5C)C4)nc4c(OCC(F)(F)F)c(-c5c(C)ccc6[nH]ncc56)c(C5CC5)cc34)CC2)C1 [Compound 259] | > 90 |
| < 300 | C=CC(=O)N1CC2(CCN(c3nc(N4CC(N5C[C@H](O)C[C@H]5C)C4)nc4c(OCC(F)(F)F)c(-c5c(C)ccc6[nH]ncc56)c(C5CC5)cc34)CC2)C1 [Compound 260] | > 90 |
| < 300 | C=CC(=O)N1CC2(CCN(c3nc(N4CC(N5C[C@H](O)[C@@H](F)C5)C4)nc4c(OCC(F)(F)F)c(-c5c(C)ccc6[nH]ncc56)c(C5CC5)cc34)CC2)C1 [Compound 261] | > 90 |
| < 300 | C=CC(=O)N1CC2(CCN(c3nc(N4CC(N5C[C@@H](O)[C@@H](F)C5)C4)nc4c(OCC(F)(F)F)c(-c5c(C)ccc6[nH]ncc56)c(C5CC5)cc34)CC2)C1 [Compound 262] | > 90 |
| < 300 | C=CC(=O)N1CC2(CCN(c3nc(N4CC(N5C[C@H](OC)[C@@H](F)C5)C4)nc4c(OCC(F)(F)F)c(-c5c(C)ccc6[nH]ncc56)c(C5CC5)cc34)CC2)C1 [Compound 263] | > 90 |
| < 300 | C=CC(=O)N1CC2(CCN(c3nc(N4CC(N5C[C@H](F)[C@H](OC)C5)C4)nc4c(OCC(F)(F)F)c(-c5c(C)ccc6[nH]ncc56)c(C5CC5)cc34)CC2)C1 [Compound 264] | > 90 |
| < 300 | C=CC(=O)N1CC2(CCN(c3nc(N4CC(N5C[C@@H](C)[C@@H](O)C5)C4)nc4c(OCC(F)(F)F)c(-c5c(C)ccc6[nH]ncc56)c(C5CC5)cc34)CC2)C1 [Compound 265] | > 90 |
| < 300 | C=CC(=O)N1CC2(CCN(c3nc(N4CC(N5C[C@@H](C)[C@@H](OC)C5)C4)nc4c(OCC(F)(F)F)c(-c5c(C)ccc6[nH]ncc56)c(C5CC5)cc34)CC2)C1 [Compound 266] | > 90 |
| < 300 | C=CC(=O)N1CC2(CCN(c3nc(N4CC(N5C[C@@H](F)[C@@H](F)C5)C4)nc4c(OCC(F)(F)F)c(-c5c(C)ccc6[nH]ncc56)c(C5CC5)cc34)CC2)C1 [Compound 267] | > 90 |
| < 300 | C=CC(=O)N1CC2(CCN(c3nc(N4CC(N5CCC(C)CC5)C4)nc4c(OCC(F)(F)F)c(-c5c(C)ccc6[nH]ncc56)c(C5CC5)cc34)CC2)C1 [Compound 268] | > 90 |
| < 300 | C=CC(=O)N1CC2(CCN(c3nc(N4CC(N5CCC(C)(C)CC5)C4)nc4c(OCC(F)(F)F)c(-c5c(C)ccc6[nH]ncc56)c(C5CC5)cc34)CC2)C1 [Compound 269] | > 90 |
| < 300 | C=CC(=O)N1CC2(CCN(c3nc(N4CC5(C4)[C@@H](O)CCN5C)nc4c(OCC(F)(F)F)c(-c5c(C)ccc6[nH]ncc56)c(C5CC5)cc34)CC2)C1 [Compound 271] | > 90 |
| < 300 | C=CC(=O)N1CC2(CCN(c3nc(N4CC5(C4)[C@H](O)CCN5C)nc4c(OCC(F)(F)F)c(-c5c(C)ccc6[nH]ncc56)c(C5CC5)cc34)CC2)C1 [Compound 272] | > 90 |
| < 300 | C=CC(=O)N1CC2(CCN(c3nc(N4CC5(C4)[C@@H](F)CCN5C)nc4c(OCC(F)(F)F)c(-c5c(C)ccc6[nH]ncc56)c(C5CC5)cc34)CC2)C1 [Compound 273] | > 90 |
| < 300 | C=CC(=O)N1CC2(CCN(c3nc(N4CC5(C4)[C@H](F)CCN5C)nc4c(OCC(F)(F)F)c(-c5c(C)ccc6[nH]ncc56)c(C5CC5)cc34)CC2)C1 [Compound 274] | > 90 |
| < 300 | C=CC(=O)N1CC2(CCN(c3nc(N4CC5(C4)[C@@H](OC)CCN5C)nc4c(OCC(F)(F)F)c(-c5c(C)ccc6[nH]ncc56)c(C5CC5)cc34)CC2)C1 [Compound 275] | > 90 |

| SMILES | IC50 [2] [nM] | inhibition at 1 µM [1] [%] |
| --- | --- | --- |
| C=CC(=O)N1CC2(CCN(c3nc(N4CC(N5C6CCC5CC6)C4)nc4c(OCC(F)(F)F)c(-c5c(C)ccc6[nH]ncc56)c(C5CC5)cc34)CC2)C1 [Compound 270] | < 300 | > 90 |

— patent publication US12479843B2, “Spiro ring-containing quinazoline compounds” (WIGEN BIOMEDICINE TECHNOLOGY (SHANGHAI) CO., LTD., priority 2019, dated 2025)
